This is an account of results in patent US20190002436A1, “RESPIRATORY SYNCYTIAL VIRUS INHIBITORS” (MEDIVIR AB, priority 2015, published 2019).

The first experiment deals with RSV (Long). Put plainly: RSV cytopathic effect (CPE)-based viral replication assay. Type of experiment: cell-based, respiratory syncytial virus (RSV). As to conditions: HEp-2 cells infected with RSV Long at MOI 0.015; 3 days at 37° C.; cell viability by CellTiter-Glo luminescence; read-out: EC50 (nm). On the procedure:
Example A: RSV Cytopathic Effect
Compounds of the invention are initially tested in a cytopathic effect (CPE)-based viral replication assay using immortalized cells and a laboratory strain of RSV (Long). This assay evaluates the ability of a compound to inhibit viral replication.
Assay plates are prepared by seeding 2,500 HEp-2 cells (ATCC) per well of a 384-well black clear-bottom plate (Greiner Bio-One) in 20 μL of assay media (defined as DMEM supplemented with 2% heat-inactivated fetal bovine serum and 1% Penicillin/Streptomycin). Assay plates are incubated overnight at 37° C. in an incubator containing 5% CO2. The following day, a 10-point serial dilution of test compound is prepared in DMSO. Compounds are subsequently diluted with assay media and 20 μL of diluted compound (containing 1.5% DMSO) is transferred to an assay plate for evaluation of antiviral activity.
For the CPE assay, cells are infected at a Multiplicity of Infection (MOI) of 0.015 using 20 μL of RSV Long (ATCC) diluted in assay media. The DMSO concentration is constant throughout the assay plate, including the negative and positive controls. The assay plate is incubated for 3 days at 37° C. in an incubator containing 5% CO2. Cell viability is evaluated with the addition of 10 μL of CellTiter-Glo (ProMega). Luminescence is measured using an EnVision plate reader (Perkin Elmer). EC50 values are calculated using the raw data from the CPE assays.
Background: Cytopathic effects are the visible damage that an infection or toxin causes in cultured cells.
As usually defined, the EC50 is the concentration at which the effect is half-maximal. As for `O=C1CC(c2c(Cn3c(=O)n(C4CC4)c4ccncc43)ncc3ccccc23)CN1` (stereo not drawn) [Example 2020], the EC50 came to 80 nM.

The same experiment, now with this note: human respiratory syncytial virus, HEp-2, 72 h, HEp-2 cells infected with RSV Long at MOI 0.015; 3 days at 37° C.; cell viability by CellTiter-Glo luminescence; read-out: EC50 (nm).
As for `CC1(n2c(=O)n(Cc3ncc4ccccc4c3CCCCO)c3cnccc32)CC1` [Example 52b, 3-((4-(4-hydroxybutyl)isoquinolin-3-yl)methyl)-1-(1-methylcyclopropyl)-1H-imidazo[4,5-c]pyridin-2(3H)-one], the EC50 worked out at 2.6 nM. On the same count and under the same terms, the result for `NC1(C(=O)N2CCC3(CC2)C(=O)N(Cc2ncc4ccccc4c2-c2cc[nH]c2)c2cnccc23)CC1` [Example 2031] reads 120 nM; that for `CS(=O)(=O)N1CCC2(CC1)C(=O)N(Cc1ncc3ccccc3c1-c1ccc(F)nc1)c1cnccc12` [Example 110b, 1′-((4-(6-fluoropyridin-3-yl)isoquinolin-3-yl)methyl)-1-(methylsulfonyl)spiro[piperidine-4,3′-pyrrolo[2,3-c]pyridin]-2′(1′H)-one], 0.86 nM. Same read-out and setting: with `NC(=O)N1CC2(C1)C(=O)N(Cc1ncc3ccccc3c1-c1ccc(S(N)(=O)=O)cc1)c1ccccc12` [Example 116b, 2′-oxo-1′-((4-(4-sulfamoylphenyl)isoquinolin-3-yl)methyl)spiro[azetidine-3,3′-indoline]-1-carboxamide] the figure was 1.3 nM; with `N[C@@H]1CCN(c2ccc3c(CCCCO)c(Cn4c(=O)n(C5CC5)c5ccncc54)ncc3c2)C1` [Example 32c, (R)-3-((7-(3-aminopyrrolidin-1-yl)-4-(4-hydroxybutyl)isoquinolin-3-yl)methyl)-1-cyclopropyl-1H-imidazo[4,5-c]pyridin-2(3H)-one], 5800 nM; with `CN(C)C(=O)c1ccc(-c2c(CN3C(=O)C4(CCN(C(=O)C5(N(C)C)CC5)CC4)c4ccncc43)ncc3ccccc23)cn1` [Example 119b, 5-(3-((1-(1-(dimethylamino)cyclopropanecarbonyl)-2′-oxospiro[piperidine-4,3′-pyrrolo[2,3-c]pyridin]-1′(2′H)-yl)methyl)isoquinolin-4-yl)-N,N-dimethylpicolinamide], 2.8 nM. Still for that read-out and setting: with `CN(C)C(=O)c1ccc(-c2c(CN3C(=O)C4(CCN(C(=O)C5(N)CC5)CC4)c4ccncc43)ncc3ccccc23)cn1` [Example 120, 5-(3-((1-(1-aminocyclopropanecarbonyl)-2′-oxospiro[piperidine-4,3′-pyrrolo[2,3-c]pyridin]-1′(2′H)-yl)methyl)isoquinolin-4-yl)-N,N-dimethylpicolinamide] the figure was 4.7 nM; with `COC(=O)N1CC2(C1)C(=O)N(Cc1ncc3ccccc3c1-c1ccc(F)nc1)c1ccccc12` [Example 73], 1.6 nM. `CN1CCN(Cc2ccc3c(CCCCO)c(Cn4c(=O)n(C5CC5)c5ccncc54)ncc3c2)CC1` [Example 43j, 1-Cyclopropyl-3-((4-(4-hydroxybutyl)-7-((4-methylpiperazin-1-yl)methyl)isoquinolin-3-yl)methyl)-1H-imidazo[4,5-c]pyridin-2(3H)-one]: the EC50 came out at 2500 nM. Same read-out and setting: with `NC(=O)N1CC2(C1)C(=O)N(Cc1ncc3ccccc3c1CCCCO)c1ccccc12` [Example 55, 1′-((4-(4-hydroxybutyl)isoquinolin-3-yl)methyl)-2′-oxospiro[azetidine-3,3′-indoline]-1-carboxamide] the figure was 4.6 nM; with `COC(=O)N1CC2(C1)C(=O)N(Cc1ncc3ccccc3c1-c1ccc(N)nc1)c1ccccc12` [Example 104, methyl 1′-((4-(6-aminopyridin-3-yl)isoquinolin-3-yl)methyl)-2′-oxospiro[azetidine-3,3′-indoline]-1-carboxylate], 1.5 nM. As for `N#Cc1ccc(-c2c(CN3C(=O)C4(CN(C(N)=O)C4)c4ccccc43)ncc3ccccc23)cn1` [Example 77], the EC50 is 3 nM. The same measure, in the same setting: with `N#Cc1ccc(-c2c(CN3C(=O)C4(CN(C(=O)OCCO)C4)c4ccccc43)ncc3ccccc23)cn1` [Example 64, 2-Hydroxyethyl 1′-((4-(6-cyanopyridin-3-yl)isoquinolin-3-yl)methyl)-2′-oxospiro[azetidine-3,3′-indoline]-1-carboxylate] the figure was 1.6 nM; with `NCC(=O)N1CC2(C1)C(=O)N(Cc1ncc3ccccc3c1-c1cccnc1)c1ccccc12` [Example 152, 1-(2-Aminoacetyl)-1′-((4-(pyridin-3-yl)isoquinolin-3-yl)methyl)spiro[azetidine-3,3′-indolin]-2′-one], 12 nM. The same measure, in the same setting: the result for `CS(=O)(=O)N1CCC2(CC1)C(=O)N(Cc1ncc3ccccc3c1-c1cnc(C(N)=O)cn1)c1cnccc12` [Example 2017] reads 34 nM; that for `COC(=O)N1CC2(CC(n3c(=O)n(Cc4ncc5ccccc5c4CCCCO)c4ccccc43)C2)C1` [Example 17, Methyl 6-(3-((4-(4-hydroxybutyl)isoquinolin-3-yl)methyl)-2-oxo-2,3-dihydro-1H-benzo[d]imidazol-1-yl)-2-azaspiro[3.3]heptane-2-carboxylate], 58 nM. The same measure, in the same setting: with `NC1(C(=O)N2CC3(C2)C(=O)N(Cc2ncc4ccccc4c2-c2cccnc2)c2ccccc23)CC1` [Example 147, 1-(1-aminocyclopropanecarbonyl)-1′-((4-(pyridin-3-yl)isoquinolin-3-yl)methyl)spiro[azetidine-3,3′-indolin]-2′-one] the figure was 18 nM; with `CC(C)(C)OC(=O)N1CC2(C1)C(=O)N(Cc1ncc3ccccc3c1CCCCO)c1ccccc12` [Example 36c, tert-butyl 1′-((4-(4-hydroxybutyl)isoquinolin-3-yl)methyl)-2′-oxospiro[azetidine-3,3′-indoline]-1-carboxylate], 2.2 nM. As to `COC(=O)N1CCC2(CC1)C(=O)N(Cc1ncc3ccccc3c1CCCS(C)(=O)=O)c1cnccc12` [Example 11c, Methyl 1′-((4-(3-(methylsulfonyl)propyl)isoquinolin-3-yl)methyl)-2′-oxo-1′,2′-dihydrospiro[piperidine-4,3′-pyrrolo[2,3-c]pyridine]-1-carboxylate], the EC50 amounted to 88 nM. With `O=C1N(Cc2ncc3ccccc3c2-c2ccc(F)nc2)c2ccccc2C12CN(CCF)C2` [Example 86, 1-(2-fluoroethyl)-1′-((4-(6-fluoropyridin-3-yl)isoquinolin-3-yl)methyl)spiro[azetidine-3,3′-indolin]-2′-one], the EC50 was found to be 20 nM.

For the compound `O=c1n(Cc2ncc3ccccc3c2CCCCO)c2cnccc2n1CC(F)(F)F` [Example 3c, 3-((4-(4-hydroxybutyl)isoquinolin-3-yl)methyl)-1-(2,2,2-trifluoroethyl)-1H-imidazo[4,5-c]pyridin-2(3H)-one], the EC50 was 23 nM.

Take `NCc1ccc2c(CCCCO)c(Cn3c(=O)n(C4CC4)c4ccncc43)ncc2c1` [Example 26, 3-((7-(Aminomethyl)-4-(4-hydroxybutyl)isoquinolin-3-yl)methyl)-1-cyclopropyl-1H-imidazo[4,5-c]pyridin-2(3H)-one]: the EC50 is 5.9 nM. On the same count and under the same terms, the result for `CS(=O)(=O)N1CC2(C1)C(=O)N(Cc1ncc3ccccc3c1-c1ccc(F)c(F)c1)c1ccccc12` [Example 75] reads 7.1 nM; that for `COC(=O)N1CC2(C1)C(=O)N(Cc1ncc3cc(C#N)c(F)cc3c1-c1cccnc1)c1ccccc12` [Example 2039], 46 nM. Still for that read-out and setting: with `COC(=O)N1CC2(C1)C(=O)N(Cc1ncc3ccccc3c1-c1ccnc(F)c1)c1ccccc12` [Example 95b, Methyl 1′-((4-(2-fluoropyridin-4-yl)isoquinolin-3-yl)methyl)-2′-oxospiro[azetidine-3,3′-indoline]-1-carboxylate] the figure was 1.8 nM. For `CNC1(C(=O)N2CCC3(CC2)C(=O)N(Cc2ncc4ccccc4c2-c2ccc(C#N)nc2)c2cnccc23)CC1` [Example 67, 5-(3-((1-(1-(Methylamino)cyclopropanecarbonyl)-2′-oxospiro[piperidine-4,3′-pyrrolo[2,3-c]pyridin]-1′(2′H)-yl)methyl)isoquinolin-4-yl)picolinonitrile], the EC50 was found to be 8.2 nM.

Turning to `COC(=O)N1CCC(n2c(=O)n(Cc3ncc4ccccc4c3CCCCO)c3cc(F)c(F)cc32)CC1` [Example 14c, methyl 4-(5,6-difluoro-3-((4-(4-hydroxybutyl)isoquinolin-3-yl)methyl)-2-oxo-2,3-dihydro-1H-benzo[d]imidazol-1-yl)piperidine-1-carboxylate], the EC50 was found to be 75 nM. The same measure, in the same setting: the result for `COC(=O)N1CCC(n2c(=O)n(Cc3ncc4cc(CN)ccc4c3CCCCO)c3cnccc32)CC1` [Example 24, Methyl 4-(3-((7-(aminomethyl)-4-(4-hydroxybutyl)isoquinolin-3-yl)methyl)-2-oxo-2,3-dihydro-1H-imidazo[4,5-c]pyridin-1-yl)piperidine-1-carboxylate] reads 2.4 nM; that for `O=c1n(Cc2ncc3c(F)cccc3c2CCCCO)c2cnccc2n1C1CC1` [Example 29, 1-Cyclopropyl-3-((8-fluoro-4-(4-hydroxybutyl)isoquinolin-3-yl)methyl)-1H-imidazo[4,5-c]pyridin-2(3H)-one], 160 nM.
